pIC50: −log10 of the molar value. Values belong to the compound of their own block, whether it stands above or below them.
Tested on: 354836-022-R-J1-PDC multicell spheroid viability
Experiment: Anticancer human tumor 354836-022-R-J1-PDC patient-derived head and neck squamous cell carcinoma cell line growth inhibition [PI3K]
Conditions: for viability, T/C: stronger effect = lower value
From the text: Combinatorial screen of targeted agents with the PI3K inhibitors inavolisib, alpelisib, duvelisib, and copanlisib in multi-cell type tumor spheroids
A high-throughput screen of multi-cell type tumor spheroids was designed to identify active combinations of targeted small molecules and PI3K pathway inhibitors. Complex spheroids include a stromal component modeled by human endothelial cells (HUVEC) and fibroblasts modeled by human mesenchymal stem cells (MSCs). The concentration ranges selected for each drug and investigational agent were based upon clinically achievable concentrations if the clinical Cmax of the agent was known.
Compounds. The drugs and investigational agents: inavolisib (NSC800729), alpelisib (NSC765974), duvelisib (NSC772469), copanlisib (NSC816437), ipatasertib (NSC767898), afuresertib (NSC778305), talazoparib (NSC767125), sapanisertib (NSC764658), selumetinib (NSC741078), tovorafenib (DAY101, NSC766906), vemurafenib (NSC761431), ravoxertinib (NSC781343), sotorasib (NSC818433), MRTX1133 (NSC 836407), abemaciclib (NSC 768073), palbociclib (NSC758247), venetoclax (NSC 766270), SY5609 (NSC837396), enzalutamide (NSC755605), and darolutamide (NSC825331), were obtained from the National Cancer Institute (NCI) Developmental Therapeutics Program Chemical Repository. The FDA-approved anticancer drug set is available from the NCI Developmental Therapeutics Program. […] The stock solutions were prepared in dimethyl sulfoxide (DMSO, Sigma-Aldrich, St. Louis, MO, cat. D2650) at 800-fold the tested concentration and stored at -70 degrees C prior to their use. All drugs and investigational agents were tested over a range starting from a high concentration at or near the clinical Cmax and decreasing in half-log increments. If the clinical Cmax for an agent had not been determined, the highest concentration tested was 10 microM.
Cell Culture. All cells were maintained in an incubator at 37 degrees C and 5% CO2 with 95% humidity. The PDC lines were cultured according to standard operating procedures established by the NCI PDMR (https://pdmr.cancer.gov/sops/default.htm). All PDCs were thawed and cultured in Matrigel-coated flasks prepared with a working solution of 1X Ham's F-12 nutrient mix, without supplementation (Invitrogen, Waltham, MA, cat. 11765054), 100 U/mL penicillin-streptomycin (Invitrogen, cat. 15140122), and 2.5% Matrigel (Corning Inc., Corning, NY, cat. 354248) for the first three passages. The 354836-022-R-J1-PDC, 475296-252-R-J1-PDC, and 997726-040-R-J2-PDC lines were cultured in 6A media, which includes advanced DMEM/F-12 (Thermo Fisher Scientific, cat. 12634028), 10 mM HEPES (Thermo Fisher Scientific, cat. 15630080), 1X GlutaMAX supplement (Thermo Fisher Scientific, cat. 35050061), 0.1 mg/mL primocin (InvivoGen, San Diego, CA, cat. ant-pm-2), 10% defined fetal bovine serum, heat inactivated (HyClone Laboratories Inc., Logan, UT, cat. SH30070.03HI), 50% L-WRN conditioned media (ATCC, cat. CRL-3276), 1.25 mM N-Acetyl-L-cysteine (Sigma-Aldrich, cat. A9165), 10 mM nicotinamide (Sigma-Aldrich, cat. N0636), 1X B-27 supplement (Thermo Fisher Scientific, cat. 17504044), 1X N-2 supplement (Thermo Fisher Scientific, cat. 17502048), and 10 microM Y-27632 dihydrochloride (Tocris Bioscience, Bristol, United Kingdom, cat. 1254). The 624824-186-R-J2-PDC line was cultured in 6C/Colon 1B media, which includes all 6A media components plus 50 ng/mL human EGF recombinant protein (Thermo Fisher Scientific, cat. PHG0311). […]

[1] = compound alone, run of 06/12/2023
[2] = curve of first compound, second compound 0.0316 µM
[3] = curve of first compound, second compound 0.1 µM
[4] = curve of first compound, second compound 0.316 µM
[5] = curve of first compound, second compound 1 µM
[6] = second compound 0.0316 µM, first compound 0.0316 µM
[7] = second compound 0.0316 µM, first compound 0.1 µM
[8] = second compound 0.0316 µM, first compound 0.316 µM
[9] = second compound 0.0316 µM, first compound 1 µM
[10] = second compound 0.1 µM, first compound 0.0316 µM
[11] = second compound 0.1 µM, first compound 0.1 µM
[12] = second compound 0.1 µM, first compound 0.316 µM
[13] = second compound 0.1 µM, first compound 1 µM
[14] = second compound 0.316 µM, first compound 0.0316 µM
[15] = second compound 0.316 µM, first compound 0.1 µM
[16] = second compound 0.316 µM, first compound 0.316 µM
[17] = second compound 0.316 µM, first compound 1 µM
[18] = second compound 1 µM, first compound 0.0316 µM
[19] = second compound 1 µM, first compound 0.1 µM
[20] = second compound 1 µM, first compound 0.316 µM
[21] = second compound 1 µM, first compound 1 µM
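Also: spheroids exposed to agents for seven days before the viability read.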

Compound: CC(Nc1ccc2c(c1)OCCn1cc(N3C(=O)OCC3C(F)F)nc1-2)C(N)=O (centres undefined)
viability, T/C (compound 0.00316 µM): 99.7% [middle of 8 runs]
viability, T/C (compound 0.01 µM): 96.8% [middle of 8 runs]
viability, T/C (compound 0.0316 µM): 99.1% [middle of 8 runs]
viability, T/C (compound 0.1 µM): 87.8% [middle of 7 runs]
viability, T/C (compound 0.316 µM): 76.5% [middle of 8 runs]
viability, T/C (compound 1 µM): 53.6% [middle of 8 runs]
pIC50 [1]: < 6.00

Compound: Cn1ncc(Cl)c1-c1cc(C(=O)NC(CN)Cc2cccc(F)c2)sc1Cl (centres undefined)
viability, T/C (compound 0.0316 µM): 83.5% [middle of 4 runs]
viability, T/C (compound 0.1 µM): 51.3% [middle of 4 runs]
viability, T/C (compound 0.316 µM): 35.9% [middle of 4 runs]
viability, T/C (compound 1 µM): 22.7% [middle of 4 runs]
viability, T/C (compound 3.16 µM): 15.5% [middle of 4 runs]
viability, T/C (compound 10 µM): 5.55% [middle of 4 runs]
IC50 (curve of compound): 114 nM [middle of 4 runs]

Second part, led by results:

IC50 [1]: 4.49 µM [middle of 8 runs]
Compound: Cc1nc(NC(=O)N2CCCC2C(N)=O)sc1-c1ccnc(C(C)(C)C(F)(F)F)c1 (centres undefined)
viability, T/C (compound 0.0316 µM): 103% [middle of 8 runs]
viability, T/C (compound 0.1 µM): 100% [middle of 8 runs]
viability, T/C (compound 1 µM): 78.3% [middle of 8 runs]
viability, T/C (compound 3.16 µM): 59.7% [middle of 8 runs]
viability, T/C (compound 10 µM): 30.9% [middle of 8 runs]

pIC50 [2]: < 6.00
pIC50 [3]: < 6.00
pIC50 [4]: < 6.00
pIC50 [5]: 6.34
pIC50 (curve of first compound, second compound 3.16 µM): 6.49
pIC50 (curve of first compound, second compound 10 µM): > 8.50
Compound: CCN1CCN(Cc2ccc(Nc3ncc(F)c(-c4cc(F)c5nc(C)n(C(C)C)c5c4)n3)nc2)CC1 + Cc1nc(NC(=O)N2CCCC2C(N)=O)sc1-c1ccnc(C(C)(C)C(F)(F)F)c1
viability, T/C (second compound 0.0316 µM, first compound 0.00316 µM): 107%
viability, T/C (second compound 0.0316 µM, first compound 0.01 µM): 82.5%
viability, T/C [6]: 97.9%
viability, T/C [7]: 90.9%
viability, T/C [8]: 99.7%
viability, T/C [9]: 62.8%
viability, T/C (second compound 0.1 µM, first compound 0.00316 µM): 94.4%
viability, T/C (second compound 0.1 µM, first compound 0.01 µM): 82.5%
viability, T/C [10]: 91.5%
viability, T/C [11]: 77.7%
viability, T/C [12]: 91.8%
viability, T/C [13]: 69.1%
viability, T/C (second compound 0.316 µM, first compound 0.00316 µM): 87.6%
viability, T/C (second compound 0.316 µM, first compound 0.01 µM): 96.4%
viability, T/C [14]: 69.5%
viability, T/C [15]: 92%
viability, T/C [16]: 84.2%
viability, T/C [17]: 51.1%
viability, T/C (second compound 1 µM, first compound 0.00316 µM): 67.9%
viability, T/C (second compound 1 µM, first compound 0.01 µM): 90.8%
viability, T/C [18]: 63.2%
viability, T/C [19]: 67.8%
viability, T/C [20]: 59.5%
viability, T/C [21]: 33.3%
viability, T/C (second compound 3.16 µM, first compound 0.00316 µM): 51.9%
viability, T/C (second compound 3.16 µM, first compound 0.01 µM): 61.8%
viability, T/C (second compound 3.16 µM, first compound 0.0316 µM): 54.4%
viability, T/C (second compound 3.16 µM, first compound 0.1 µM): 59.3%
viability, T/C (second compound 3.16 µM, first compound 0.316 µM): 49.8%
viability, T/C (second compound 3.16 µM, first compound 1 µM): 18.8%
viability, T/C (second compound 10 µM, first compound 0.00316 µM): 31.8%
viability, T/C (second compound 10 µM, first compound 0.01 µM): 36.6%
viability, T/C (second compound 10 µM, first compound 0.0316 µM): 35%
viability, T/C (second compound 10 µM, first compound 0.1 µM): 28.9%
viability, T/C (second compound 10 µM, first compound 0.316 µM): 25.2%
viability, T/C (second compound 10 µM, first compound 1 µM): 9.14%

pIC50 (curve of first compound, second compound 0.00316 µM): < 5.00
pIC50 (curve of first compound, second compound 0.01 µM): < 5.00
pIC50 [2]: < 5.00
pIC50 [3]: < 5.00
pIC50 [4]: < 5.00
pIC50 [5]: < 5.00
Compound: C=CC(=O)N1CCN(c2nc(=O)n(-c3c(C)ccnc3C(C)C)c3nc(-c4c(O)cccc4F)c(F)cc23)C(C)C1 (centres undefined) + CC(Nc1ccc2c(c1)OCCn1cc(N3C(=O)OCC3C(F)F)nc1-2)C(N)=O
viability, T/C (second compound 0.00316 µM, first compound 0.0316 µM): 100%
viability, T/C (second compound 0.00316 µM, first compound 0.1 µM): 81.7%
viability, T/C (second compound 0.00316 µM, first compound 0.316 µM): 98.7%
viability, T/C (second compound 0.00316 µM, first compound 1 µM): 94.5%
viability, T/C (second compound 0.00316 µM, first compound 3.16 µM): 106%
viability, T/C (second compound 0.00316 µM, first compound 10 µM): 113%
viability, T/C (second compound 0.01 µM, first compound 0.0316 µM): 101%
viability, T/C (second compound 0.01 µM, first compound 0.1 µM): 91.8%
viability, T/C (second compound 0.01 µM, first compound 0.316 µM): 93.1%
viability, T/C (second compound 0.01 µM, first compound 1 µM): 95.3%
viability, T/C (second compound 0.01 µM, first compound 3.16 µM): 103%
viability, T/C (second compound 0.01 µM, first compound 10 µM): 91%
viability, T/C [6]: 95.7%
viability, T/C [7]: 112%
viability, T/C [8]: 86.9%
viability, T/C [9]: 111%
viability, T/C (second compound 0.0316 µM, first compound 3.16 µM): 115%
viability, T/C (second compound 0.0316 µM, first compound 10 µM): 92.2%
viability, T/C [10]: 77.9%
viability, T/C [11]: 94.3%
viability, T/C [12]: 95.2%
viability, T/C [13]: 124%
viability, T/C (second compound 0.1 µM, first compound 3.16 µM): 88.5%
viability, T/C (second compound 0.1 µM, first compound 10 µM): 89.7%
viability, T/C [14]: 68.2%
viability, T/C [15]: 75.9%
viability, T/C [16]: 81.5%
viability, T/C [17]: 68.1%
viability, T/C (second compound 0.316 µM, first compound 3.16 µM): 87.7%
viability, T/C (second compound 0.316 µM, first compound 10 µM): 70.6%
viability, T/C [18]: 63.9%
viability, T/C [19]: 63.2%
viability, T/C [20]: 65.1%
viability, T/C [21]: 74%
viability, T/C (second compound 1 µM, first compound 3.16 µM): 68.3%
viability, T/C (second compound 1 µM, first compound 10 µM): 55.6%
